Source: the NIST ThermoML archive (doi:10.1021/je0500577)

Assays:
[1] = xn = mol fraction of the nth substance listed
[2] = for surface tension liquid-gas: Drop volume; for mass density: 101.33 kPa, Liquid

BrC1CCCCC1 [bromocyclohexane] + C1CCOCC1
surface tension liquid-gas [mN/m], [1], Drop volume
Conditions	298.15 K	313.15 K
x1 = 0.0539	27.62	25.95
x1 = 0.098	27.89	26.32
x1 = 0.1908	28.45	27.01
x1 = 0.296	29.11	27.7
x1 = 0.3969	29.75	28.35
x1 = 0.4993	30.43	28.98
x1 = 0.6178	31.23	29.74
x1 = 0.712	31.86	30.43
x1 = 0.8067	32.49	31.23
x1 = 0.8816	32.95	31.88
x1 = 0.9568	33.39	32.57
x1 = 1	33.63	32.98

ClC1CCCCC1 [chlorocyclohexane]
[2]
Conditions	mass density [kg/m3]	surface tension liquid-gas [mN/m]
298.15 K	993.17	31.05
313.15 K	–	29.44

C1CCOCC1 [tetrahydropyran]
[2]
Conditions	mass density [kg/m3]	surface tension liquid-gas [mN/m]
298.15 K	878.82	27.29
313.15 K	–	25.46

C1CCOC1 [tetrahydrofuran] + ClC1CCCCC1
[1], Drop volume, x2 = 0
Conditions	surface tension liquid-gas [mN/m]
298.15 K	27.12
313.15 K	25.24

CC1CCC(C)O1 (stereo not given) [2,5-dimethyltetrahydrofuran] + BrC1CCCCC1
surface tension liquid-gas [mN/m], [1]
Conditions	298.15 K	313.15 K
x2 = 0	22.93	21.5
x2 = 0.0692	23.3	21.71
x2 = 0.0908	23.42	21.83
x2 = 0.1916	24.03	22.52
x2 = 0.2942	24.54	23.16
x2 = 0.3981	24.9	23.73
x2 = 0.4712	25.17	24.06
x2 = 0.5994	25.96	24.84
x2 = 0.6382	26.39	25.15
x2 = 0.701	–	25.74
x2 = 0.8032	29.16	–
x2 = 0.8035	–	27.31
x2 = 0.8552	30.35	–
x2 = 0.8558	–	28.4
x2 = 0.8996	31.47	–
x2 = 0.9378	32.34	30.81

C1CCOCC1 [tetrahydropyran] + BrC1CCCCC1
[1], Drop volume, x2 = 0
Conditions	surface tension liquid-gas [mN/m]
298.15 K	27.29
313.15 K	25.46

CC1CCCO1 (stereo not given) [2-methyltetrahydrofuran] + BrC1CCCCC1
[1], Drop volume, x2 = 0
Conditions	surface tension liquid-gas [mN/m]
298.15 K	24.56
313.15 K	23.02

ClC1CCCCC1 [chlorocyclohexane] + C1CCOC1
surface tension liquid-gas [mN/m], [1], Drop volume
Conditions	298.15 K	313.15 K
x1 = 0.0361	–	25.39
x1 = 0.0362	27.27	–
x1 = 0.0727	–	25.56
x1 = 0.0728	27.43	–
x1 = 0.1434	–	25.88
x1 = 0.1442	27.73	–
x1 = 0.2257	–	26.25
x1 = 0.2258	28.07	–
x1 = 0.3114	28.43	26.66
x1 = 0.4061	28.82	27.09
x1 = 0.5071	–	27.52
x1 = 0.5093	29.25	–
x1 = 0.6163	29.68	–
x1 = 0.6173	–	27.96
x1 = 0.7351	–	28.42
x1 = 0.7359	30.11	–
x1 = 0.8582	–	28.89
x1 = 0.8602	30.54	–
x1 = 0.9267	30.77	–
x1 = 0.9291	–	29.16
x1 = 1	31.05	29.44

BrC1CCCCC1 [bromocyclohexane] + C1CCOC1
surface tension liquid-gas [mN/m], [1], Drop volume
Conditions	298.15 K	313.15 K
x1 = 0.0528	27.39	25.66
x1 = 0.0909	27.62	25.94
x1 = 0.1919	28.31	26.67
x1 = 0.2954	29.06	27.39
x1 = 0.3997	29.82	28.12
x1 = 0.5057	30.56	28.88
x1 = 0.611	31.24	29.65
x1 = 0.7127	31.89	30.42
x1 = 0.8064	–	31.18
x1 = 0.8232	32.56	–
x1 = 0.8937	32.98	–
x1 = 0.8994	–	32
x1 = 0.9467	33.31	32.44
x1 = 1	33.63	32.98

C1CCOC1 [tetrahydrofuran] + BrC1CCCCC1
[1], Drop volume, x2 = 0
Conditions	surface tension liquid-gas [mN/m]
298.15 K	27.12
313.15 K	25.24

CC1CCC(C)O1 (stereo not given) [2,5-dimethyltetrahydrofuran]
[2]
Conditions	mass density [kg/m3]	surface tension liquid-gas [mN/m]
298.15 K	825.25	22.93
313.15 K	–	21.5
